Values of other authors as cited in patent publication EP4640076A1, “ORAL PRODUCT WITH FLAVOR EMULSION” (Nicoventures Trading Limited, priority 2024, dated 2025).
Where two headings read alike, the source gives them in different places.

How the values were obtained:
[1] = at 25°C; heptanal

Row | vapor pressure [1] [mm Hg] | logP (heptanal) | logP (resveratrol) | SMILES
1 | 3.85 | 2.44 |  | CCCCCCC=O [heptanal]
2 |  |  | 3.1 | Oc1ccc(/C=C/c2cc(O)cc(O)c2)cc1 [Resveratrol, 3,5,4'-trihydroxy-trans-stilbene]
